Literature values in PubChem BioAssay AID1259409 (Chemical Carcinogenesis Research Information System (CCRIS), 2018).

Tested on: rodent chemically induced tumor inhibition, incidence and multiplicity
Assay: CCRIS tumor inhibitor studies
Conditions: Dose [Inhibitor]: 0, Route [Inhibitor]: ORAL, Promoter: NONE USED

## CC(C)=CCC/C(C)=C/C=C/C(C)=C/C=C/C(C)=C/C=C/C=C(C)/C=C/C=C(C)/C=C/C=C(\C)CCC=C(C)C
Carcinogen: DIETHYLNITROSAMINE, 55-18-5, N-METHYL-N-NITROSOUREA, 684-93-5, 1,2-DIMETHYLHYDRAZINE, 306-37-6, Carcinogen: DIETHYLNITROSAMINE, 55-18-5, N-METHYL-N-NITROSOUREA, 684-93-5, 1,2-DIMETHYLHYDRAZINE, 306-37-6, 25 PPM IN DRINKING WATER FOR 21 WK BEGINNING 2 WK POST CARCINOGEN TREATMENT (STUDY DURATION: 32 WK), Species: MOUSE, Strain/Sex: B6C3F1/MALE, Target Tissue: Type of Lesion: LUNG: ADENOMA, Dose [Carcinogen]: 10 MG/KG BW DEN ON DAYS 11 AND 32 OF AGE, 120 PPM MNU IN DRINKING WATER FROM WKS 4 TO 9, 20 MG/KG BW DMH 2/WK FOR 5 WK
  tumour outcome (control, treated, inhibition, significance): 11/16 (69%), 11/16 (69%), 0%, not significant
Carcinogen: DIETHYLNITROSAMINE, 55-18-5, N-METHYL-N-NITROSOUREA, 684-93-5, 1,2-DIMETHYLHYDRAZINE, 306-37-6, Carcinogen: DIETHYLNITROSAMINE, 55-18-5, N-METHYL-N-NITROSOUREA, 684-93-5, 1,2-DIMETHYLHYDRAZINE, 306-37-6, 25 PPM IN DRINKING WATER FOR 21 WK BEGINNING 2 WK POST CARCINOGEN TREATMENT (STUDY DURATION: 32 WK), Species: MOUSE, Strain/Sex: B6C3F1/MALE, Target Tissue: Type of Lesion: LUNG: CARCINOMA, Dose [Carcinogen]: 10 MG/KG BW DEN ON DAYS 11 AND 32 OF AGE, 120 PPM MNU IN DRINKING WATER FROM WKS 4 TO 9, 20 MG/KG BW DMH 2/WK FOR 5 WK
  tumour outcome (control, treated, inhibition, significance): 1/16 (6%), 2/16 (13%), -116%, not significant
Carcinogen: DIETHYLNITROSAMINE, 55-18-5, N-METHYL-N-NITROSOUREA, 684-93-5, 1,2-DIMETHYLHYDRAZINE, 306-37-6, Carcinogen: DIETHYLNITROSAMINE, 55-18-5, N-METHYL-N-NITROSOUREA, 684-93-5, 1,2-DIMETHYLHYDRAZINE, 306-37-6, 50 PPM IN DRINKING WATER FOR 21 WK BEGINNING 2 WK POST CARCINOGEN TREATMENT (STUDY DURATION: 32 WK), Species: MOUSE, Strain/Sex: B6C3F1/FEMALE, Target Tissue: Type of Lesion: LUNG: ADENOMA, Dose [Carcinogen]: 10 MG/KG BW DEN ON DAYS 11 AND 32 OF AGE, 120 PPM MNU IN DRINKING WATER FROM WKS 4 TO 9, 20 MG/KG BW DMH 2/WK FOR 5 WK
  tumour outcome (control, treated, inhibition, significance): 6/16 (38%), 8/15 (53%), -39%, not significant
Carcinogen: DIETHYLNITROSAMINE, 55-18-5, N-METHYL-N-NITROSOUREA, 684-93-5, 1,2-DIMETHYLHYDRAZINE, 306-37-6, Carcinogen: DIETHYLNITROSAMINE, 55-18-5, N-METHYL-N-NITROSOUREA, 684-93-5, 1,2-DIMETHYLHYDRAZINE, 306-37-6, 50 PPM IN DRINKING WATER FOR 21 WK BEGINNING 2 WK POST CARCINOGEN TREATMENT (STUDY DURATION: 32 WK), Species: MOUSE, Strain/Sex: B6C3F1/MALE, Target Tissue: Type of Lesion: LUNG: ADENOMA, Dose [Carcinogen]: 10 MG/KG BW DEN ON DAYS 11 AND 32 OF AGE, 120 PPM MNU IN DRINKING WATER FROM WKS 4 TO 9, 20 MG/KG BW DMH 2/WK FOR 5 WK
  tumour outcome (control, treated, inhibition, significance): 11/16 (69%), 3/16 (19%), 72%, p<0.02
Carcinogen: DIETHYLNITROSAMINE, 55-18-5, N-METHYL-N-NITROSOUREA, 684-93-5, 1,2-DIMETHYLHYDRAZINE, 306-37-6, Carcinogen: DIETHYLNITROSAMINE, 55-18-5, N-METHYL-N-NITROSOUREA, 684-93-5, 1,2-DIMETHYLHYDRAZINE, 306-37-6, 50 PPM IN DRINKING WATER FOR 21 WK BEGINNING 2 WK POST CARCINOGEN TREATMENT (STUDY DURATION: 32 WK), Species: MOUSE, Strain/Sex: B6C3F1/MALE, Target Tissue: Type of Lesion: LUNG: CARCINOMA, Dose [Carcinogen]: 10 MG/KG BW DEN ON DAYS 11 AND 32 OF AGE, 120 PPM MNU IN DRINKING WATER FROM WKS 4 TO 9, 20 MG/KG BW DMH 2/WK FOR 5 WK
  tumour outcome (control, treated, inhibition, significance): 1/16 (6%), 0/16 (0%), 100%, not significant
Carcinogen: N-BUTYL-N-(4-HYDROXYBUTYL)NITROSAMINE, 3817-11-6, 0.0025% IN DRINKING WATER FOR 12 WK BEGINNING POST CARCINOGEN TREATMENT (STUDY DURATION: 20 WK), Species: RAT, Strain/Sex: F344/MALE, Target Tissue: Type of Lesion: URINARY BLADDER: TRANSITIONAL CELL CARCINOMA, Dose [Carcinogen]: 0.05% IN DRINKING WATER FOR 8 WK
  tumour outcome (control, treated, inhibition, significance): 10/12 (83%), 10/12 (83%), 0%, not significant
Carcinogen: N-METHYLNITROSAUREA, 684-93-5, 17 PPM IN TOMATO JUICE AND WATER (1:2) AS DRINKING FLUID FOR DURATION OF STUDY (STUDY DURATION: 35 WK), Species: RAT, Strain/Sex: F344/FEMALE, Target Tissue: Type of Lesion: COLON: TUMOR, Dose [Carcinogen]: 0.4% (0.5 ML) AQUEOUS SOLUTION 3/WK FOR 3 WK
  tumour outcome (control, treated, inhibition, significance): 13/24 (54%), 5/24 (21%), 61%, p<0.02
Carcinogen: N-METHYLNITROSOUREA, 684-93-5, 3.4 PPM IN TOMATO JUICE AND WATER (1:14) AS DRINKING FLUID FOR DURATION OF STUDY (STUDY DURATION: 35 WK), Species: RAT, Strain/Sex: F344/FEMALE, Target Tissue: Type of Lesion: COLON: TUMOR, Dose [Carcinogen]: 0.8% (0.5 ML) AQUEOUS SOLUTION 3/WK FOR 3 WKS
  tumour outcome (control, treated, inhibition, significance): 21/25 (84%), 18/25 (72%), 14%, not significant
Carcinogen: N-METHYLNITROSOUREA, 684-93-5, 17 PPM IN DRINKING WATER FOR DURATION OF STUDY (STUDY DURATION: 35 WK), Species: RAT, Strain/Sex: F344/FEMALE, Target Tissue: Type of Lesion: COLON: TUMOR, Dose [Carcinogen]: 0.4% (0.5 ML) AQUEOUS SOLUTION 3/WK FOR 3 WK
  tumour outcome (control, treated, inhibition, significance): 13/24 (54%), 8/24 (33%), 39%, not significant
Carcinogen: N-METHYLNITROSOUREA, 684-93-5, 17 PPM IN TOMATO JUICE AND WATER (1:2) AS DRINKING FLUID FOR DURATION OF STUDY (STUDY DURATION: 35 WK), Species: RAT, Strain/Sex: F344/FEMALE, Target Tissue: Type of Lesion: COLON: TUMOR, Dose [Carcinogen]: 0.8% (0.5 ML) AQUEOUS SOLUTION 3/WK FOR 3 WK
  tumour outcome (control, treated, inhibition, significance): 21/25 (84%), 10/25 (40%), 52%, p<0.01
